Laboratory results as given in US5948628A, “Methods of screening for compounds which mimic galectin-1” (The Board of Regents of The University of Oklahoma, priority 1997, dated 1999).

How the values were obtained:
[1] = molecular target: T1, recombinant galectin-1 (Cys at 2nd residue converted to Ser) (Cricetulus griseus, UniProt P48538, C3S); assay: Binding of biotinylated galectin-1 to activated neutrophils and desialylated HL-60 cells (flow cytometry); type: cell-based, hamster; details: 10 mM sugar; galectin-1 10 μg/ml; activated neutrophils, desialylated HL-60 cells
T1 construct: made in house; host or cells: E. coli
T1 sequence (P48538 whole entry C3S): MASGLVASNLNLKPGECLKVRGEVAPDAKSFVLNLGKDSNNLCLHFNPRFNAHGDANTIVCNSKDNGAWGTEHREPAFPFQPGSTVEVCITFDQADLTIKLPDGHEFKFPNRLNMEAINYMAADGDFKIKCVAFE
Description: Isolated neutrophils were activated by treatment with PMA and HL-60 cells were desialylated by treatment with neuraminidase. Heparinized blood was obtained from normal donors. Neutrophils were isolated by dextran sedimentation, hypotonic lysis, and density gradient centrifugation on HISTOPAQUE-1077 (Sigma), as described [G. A. Zimmerman, T. M. McIntyre, and S. M. Prescott, J. Clin. Invest., 76:2235, 1985]. Typically, the polymorphonuclear cells were >90% neutrophils by Wright-Giemsa staining and >90% CD16^+ as assessed by flow cytometry. Neutrophils were activated by treatment with phorbol myristate acetate (PMA) (Sigma) (0.5 μM) for 20 minutes at 37° C. in RPMI containing 20% FCS (0.5 ml). HL-60 cells were routinely maintained in RPMI containing 20% FCS. Desialylated HL-60 cells were prepared by treating 3×10^7 cells with Arthrobacter ureafaciens neuraminidase (Sigma) (100 mU) in 500 μl of RPMI containing 20% FCS for 1 hour at 37° C. […] The washed cells were incubated with FITC-streptavidin (1:100 dilution) (Sigma), washed once with PBS, and analyzed by flow cytometry. […] "Unstained" indicates fluorescence of either resting neutrophils or HL-60 cells incubated in the absence of either MAL or galectin-1. "Control" indicates fluorescence of either activated neutrophils or desialylated HL-60 cells incubated with galectin-1 in the presence of 10 mM lactose.

[2] = molecular target: T1, recombinant galectin-1 (Cys at 2nd residue converted to Ser); assay: Galectin-1-induced apoptosis of activated neutrophils and desialylated HL-60 cells (annexin V staining); type: cell-based, hamster; details: galectin-1 10 μM; lactose 10 mM
Method: Resting or activated neutrophils (3×10^6 cells) were treated with galectin-1 (10 μM) in 0.5 ml of HBSS (lacking Ca^2+ /Mg^2+ and containing 0.5% human albumin) for 90 minutes at 37° C. in the presence or absence of 10 mM lactose. HL-60 cells and desialylated HL-60 cells (3×10^6 cells/0.5 ml) were treated with galectin-1 (10 μM) for 20 hours at 37° C. in the presence or absence of 10 mM lactose. At the end of the incubations all cells were treated with 10 mM lactose in PBS to disaggregate the cells. […]
Annexin V is a protein that recognizes phosphatidyl serine (PS) and is a convenient marker for apoptosis of neutrophils and other cells (S. J. Martin, C. P. Reutelingsperger, A. J. McGahon, J. A. Rader, R. C. van Schie, D. M. LaFace and D. R. Green DR, J. Exp. Med., 182:1545, 1995; C. H. Homburg, M. de Haas, A. E. von dem Borne, A. J. Verhoeven, C. P. Reutelingsperger and D. Roos, Blood, 85:532, 1995; I. Vermes, C. Haanen, H. Steffens-Nakken, and C. Reutelingsperger, J. Immunol. Methods, 184:39, 1995; Z. Darzynkiewicz, G. Juan, X. Li, W. Gorczyca, T. Murakami, and F. Traganos, Cytometry 27:1, 1997). […] Within 90 minutes following treatment with 10 μM galectin-1, 36% of the activated neutrophils undergo apoptosis, as determined by their staining with annexin V (FIG. 2A). […]

[3] = molecular target: T1, recombinant galectin-1 (Cys at 2nd residue converted to Ser); assay: Cell agglutination by galectin-1; type: cell-based, hamster
Method: In all cases cell binding of galectin-1 to cells was inhibited by 10 mM lactose, a known inhibitor of galectin-1 (FIG. 1), but not by 10 mM maltose, an isomeric, non-inhibitory analog (data not shown). We noted that both activated neutrophils and desialylated HL-60 cells are strongly agglutinated by galectin-1, whereas resting neutrophils and HL-60 cells are not appreciably agglutinated, which further underscores the profound differences in surface phenotypes between resting and activated neutrophils.

[4] = molecular target: T2, hamster galectin-1 mutant N-Gal-1 (monomeric; three hydrophobic N-terminal amino acids disrupted), SEQ ID NO:4 (Cricetulus griseus, UniProt P48538, A7S/C3S/L5Q/V6D); assay: Equilibrium dialysis binding of N-acetyllactosamine
T2 construct: made in house; host or cells: E. coli
T2 sequence (P48538 2-135 C3S/L5Q/V6D/A7S limits assumed): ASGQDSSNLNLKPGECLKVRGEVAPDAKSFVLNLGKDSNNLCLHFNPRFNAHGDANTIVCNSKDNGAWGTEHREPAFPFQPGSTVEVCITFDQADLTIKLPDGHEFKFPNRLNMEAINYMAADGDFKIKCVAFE
Description: (§1) Specific mutations were created in the six N-terminal amino acids (SEQ ID NO:1) of hamster galectin-1, as indicated in FIG. 3 and as described in further detail in Cho and Cummings, Biochemistry, 35:13081, 1996, which is hereby incorporated by reference herein in its entirety. C2S-Gal-1 (SEQ ID NO:2) contains a single replacement of Cys-2 to Ser. V5D-Gal-1 (SEQ ID NO:3) contains a single mutation of Val-5 to Asp. N-Gal-1 (SEQ ID NO:4) contains disruptions of three hydrophobic amino acids at the N-terminus. We also made another mutant construct, termed N/C-Gal-1, which contained the amino terminal changes of N-Gal-1 in addition to multiple changes in specific hydrophobic amino acids at the C-terminus (data not shown). All mutants, except for C2S-Gal-1, behaved as monomers in size exclusion HPLC and native gel electrophoresis. C2S-Gal-1 was indistinguishable from the native lectin in its ability to undergo monomer-dimer equilibrium and in its carbohydrate-binding affinity. […] However, in equilibrium dialysis N-Gal-1 and V5D-Gal-1 bound N-acetyllactosamine with similar affinity (Kd ≈90 μM) to that of the C2S-Gal-1 and the native lectin. […] N/C-Gal-1 was non-functional.

[5] = molecular target: T3, hamster galectin-1 mutant C2S-Gal-1 (Cys-2 to Ser), SEQ ID NO:2 (Cricetulus griseus, UniProt P48538, C3S); assay: as above; details: stated only as similar affinity to the monomeric mutants
T3 construct: made in house; host or cells: E. coli
T3 sequence (P48538 whole entry C3S): as the sequence (P48538 whole entry C3S) above
Description: as §1

[6] = molecular target: hamster galectin-1, native lectin (N-terminus SEQ ID NO:1) (Cricetulus griseus, UniProt P48538); assay: as above; details: stated only as similar affinity to the monomeric mutants
Sequence of hamster galectin-1, native lectin (N-terminus SEQ ID NO:1) (P48538 2-135): as the sequence (P48538 2-135 C3S/L5Q/V6D/A7S limits assumed) above, with S2C, Q4L, D5V, S6A counted along it
Description: as §1

[7] = molecular target: T4, hamster galectin-1 mutant V5D-Gal-1 (Val-5 to Asp), SEQ ID NO:3 (Cricetulus griseus, UniProt P48538, V6D); assay: as above
T4 construct: made in house; host or cells: E. coli
T4 sequence (P48538 whole entry V6D): as the sequence (P48538 whole entry C3S) above, with S3C, V6D counted along it
Description: as §1

| Structure (SMILES) | Inhibition of cell binding of galectin-1 [1] | Inhibition of apoptosis-inducing activity of galectin-1 [2] | Inhibition of cell agglutinating activity of galectin-1 [3] | Kd [4] [µM] | Kd [5] [µM] | Kd [6] [µM] | Kd [7] [µM] |
| --- | --- | --- | --- | --- | --- | --- | --- |
| OC[C@H]1O[C@@H](O[C@H]2[C@H](O)[C@@H](O)C(O)O[C@@H]2CO)[C@H](O)[C@@H](O)[C@H]1O (some centres unmarked) [lactose] | inhibited | inhibited | inhibited | – | – | – | – |
| OC[C@H]1O[C@H](O[C@H]2[C@H](O)[C@@H](O)[C@H](O)O[C@@H]2CO)[C@H](O)[C@@H](O)[C@@H]1O [maltose] | non-inhibitory | – | – | – | – | – | – |
| CC(=O)N[C@H]1C(O)O[C@H](CO)[C@@H](O[C@@H]2O[C@H](CO)[C@H](O)[C@H](O)[C@H]2O)[C@@H]1O (some centres unmarked) [N-acetyllactosamine] | – | – | – | ~90 | ~90 | ~90 | ~90 |
